From ChEMBL document CHEMBL5150077, “Identification of TUL01101: A Novel Potent and Selective JAK1 Inhibitor for the Treatment of Rheumatoid Arthritis” (J Med Chem, 2022)

Tests used:
[1] = Microsomal stability in mouse liver microsomes assessed as intrinsic clearance at 1 uM incubated for 60 mins in presence of NADPH regenerating system by LC-MS/MS analysis; type: ADME, Microsome; conditions: read-out: CLH
[2] = Plasma protein binding in mouse assessed as unbound fraction at 2 uM incubated for 4 hrs by LC/MS/MS based balanced dialysis method
[3] = Microsomal stability in rat liver microsomes assessed as intrinsic clearance at 1 uM incubated for 60 mins in presence of NADPH regenerating system by LC-MS/MS analysis; type: ADME, Microsome; conditions: read-out: CLH
[4] = Volume of distribution at steady state in C57BL/6 mouse at 15 mg/kg, po or 2 mg/kg, iv measured for 24 hrs by LC/MS/MS analysis; type: ADME, organism-based; conditions: in vivo
[5] = Metabolic stability in mouse hepatocytes assessed as intrinsic clearance at 1 uM incubated for 90 mins by LC/MS/MS analysis; type: ADME, cell-based, Hepatocyte
[6] = Elimination half life in C57BL/6 mouse at 15 mg/kg, po measured for 24 hrs by LC/MS/MS analysis; type: ADME, organism-based; conditions: in vivo, read-out: beta t1/2 (converted)
[7] = Clearance in C57BL/6 mouse at 2 mg/kg, iv measured for 24 hrs by LC/MS/MS analysis; type: ADME, organism-based; conditions: in vivo
[8] = Plasma protein binding in rat assessed as unbound fraction at 2 uM incubated for 4 hrs by LC/MS/MS based balanced dialysis method
[9] = Metabolic stability in human hepatocytes assessed as intrinsic clearance at 1 uM incubated for 90 mins by LC/MS/MS analysis; type: ADME, cell-based, Hepatocyte
[10] = Metabolic stability in rat hepatocytes assessed as intrinsic clearance at 1 uM incubated for 90 mins by LC/MS/MS analysis; type: ADME, cell-based, Hepatocyte
Cytochrome P450 3A4 = Cytochrome P450 3A4 (Homo sapiens, UniProt P08684); assay: Inhibition of CYP3A4 in human liver microsomes incubated in presence NADPH by LC-MS/MS analysis
Sequence of Cytochrome P450 3A4 (P08684 whole entry): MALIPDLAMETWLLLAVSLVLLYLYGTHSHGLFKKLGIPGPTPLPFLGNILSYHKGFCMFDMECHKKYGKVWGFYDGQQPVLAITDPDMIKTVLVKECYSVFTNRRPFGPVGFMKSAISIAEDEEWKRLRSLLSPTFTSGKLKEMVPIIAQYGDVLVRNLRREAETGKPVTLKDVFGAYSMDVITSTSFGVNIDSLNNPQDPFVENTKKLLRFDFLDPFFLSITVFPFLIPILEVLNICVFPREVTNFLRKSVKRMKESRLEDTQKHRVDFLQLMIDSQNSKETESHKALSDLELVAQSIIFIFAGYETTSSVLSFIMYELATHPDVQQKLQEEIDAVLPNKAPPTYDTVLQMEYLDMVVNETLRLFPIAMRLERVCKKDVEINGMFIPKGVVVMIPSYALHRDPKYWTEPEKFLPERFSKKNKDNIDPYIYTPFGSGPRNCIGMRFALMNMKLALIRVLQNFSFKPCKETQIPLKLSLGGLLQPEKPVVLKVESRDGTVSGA

Homo sapiens [11] = species: Homo sapiens; assay: Selectivity index, ratio of IC50 for inhibition of recombinant human TYK2 to IC50 for inhibition of recombinant human JAK1
[12] = Apparent permeability across apical to basolateral side in human Caco-2 cells at 10 uM measured after 120 mins by LC-MS/MS analysis; conditions: Caco-2
Cytochrome P450 2C9 = Cytochrome P450 2C9 (Homo sapiens, UniProt P11712); assay: Inhibition of CYP2C9 in human liver microsomes incubated in presence NADPH by LC-MS/MS analysis
Sequence of Cytochrome P450 2C9 (P11712 whole entry): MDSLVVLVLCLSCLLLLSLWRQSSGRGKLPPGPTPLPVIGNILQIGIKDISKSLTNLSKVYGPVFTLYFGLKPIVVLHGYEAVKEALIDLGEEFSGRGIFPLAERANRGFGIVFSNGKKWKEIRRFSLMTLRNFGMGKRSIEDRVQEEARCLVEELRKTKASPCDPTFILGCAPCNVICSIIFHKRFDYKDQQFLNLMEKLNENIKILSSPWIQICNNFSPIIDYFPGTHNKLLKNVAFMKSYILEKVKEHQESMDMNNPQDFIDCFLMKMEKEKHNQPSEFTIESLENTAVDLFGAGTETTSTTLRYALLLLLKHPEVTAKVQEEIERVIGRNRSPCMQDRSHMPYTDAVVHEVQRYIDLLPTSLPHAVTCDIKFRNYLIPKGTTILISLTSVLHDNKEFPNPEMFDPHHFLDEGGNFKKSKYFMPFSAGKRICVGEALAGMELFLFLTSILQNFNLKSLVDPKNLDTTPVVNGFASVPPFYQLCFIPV

[13] = biological target: Non-receptor tyrosine-protein kinase TYK2 (Homo sapiens, UniProt P29597); assay: Inhibition of recombinant human TYK2 using GGMEDIYFEFMGGKKK as substrate incubated for 40 mins in presence of Mg/ATP mixture by [gamma p33]-ATP based scintillation counting method
Sequence of Non-receptor tyrosine-protein kinase TYK2 (P29597 whole entry): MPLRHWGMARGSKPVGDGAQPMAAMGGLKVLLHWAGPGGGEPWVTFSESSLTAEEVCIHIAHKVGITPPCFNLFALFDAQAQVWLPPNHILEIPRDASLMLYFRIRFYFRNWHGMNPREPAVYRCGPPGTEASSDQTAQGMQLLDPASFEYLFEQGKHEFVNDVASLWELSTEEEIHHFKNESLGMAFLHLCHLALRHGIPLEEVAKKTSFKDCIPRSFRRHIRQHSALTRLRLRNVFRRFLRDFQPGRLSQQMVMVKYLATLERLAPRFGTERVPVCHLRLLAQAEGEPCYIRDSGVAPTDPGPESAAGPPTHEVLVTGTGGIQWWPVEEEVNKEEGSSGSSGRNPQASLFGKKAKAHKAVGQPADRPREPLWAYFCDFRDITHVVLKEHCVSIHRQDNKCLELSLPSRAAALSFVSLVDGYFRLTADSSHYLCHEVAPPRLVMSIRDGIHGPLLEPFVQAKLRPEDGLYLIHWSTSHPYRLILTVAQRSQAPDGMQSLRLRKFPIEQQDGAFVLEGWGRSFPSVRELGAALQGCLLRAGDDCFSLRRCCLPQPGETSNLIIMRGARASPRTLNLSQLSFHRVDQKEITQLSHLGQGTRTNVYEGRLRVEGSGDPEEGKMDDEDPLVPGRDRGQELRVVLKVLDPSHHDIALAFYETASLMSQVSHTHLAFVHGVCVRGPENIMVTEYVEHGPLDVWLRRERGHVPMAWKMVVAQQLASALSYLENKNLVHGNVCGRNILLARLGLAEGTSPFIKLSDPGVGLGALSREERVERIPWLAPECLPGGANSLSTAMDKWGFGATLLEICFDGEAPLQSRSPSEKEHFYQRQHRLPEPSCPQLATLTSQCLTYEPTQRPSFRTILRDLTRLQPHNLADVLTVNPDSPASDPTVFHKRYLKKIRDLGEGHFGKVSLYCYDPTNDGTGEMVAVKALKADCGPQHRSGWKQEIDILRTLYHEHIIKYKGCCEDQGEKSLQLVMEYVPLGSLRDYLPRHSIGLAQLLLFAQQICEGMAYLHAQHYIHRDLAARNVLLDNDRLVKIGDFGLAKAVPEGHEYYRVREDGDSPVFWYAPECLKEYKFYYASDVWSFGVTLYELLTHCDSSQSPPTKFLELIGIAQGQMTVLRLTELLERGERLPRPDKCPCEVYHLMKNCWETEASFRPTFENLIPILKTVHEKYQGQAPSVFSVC

Homo sapiens [14] = species: Homo sapiens; assay: Selectivity index, ratio of IC50 for inhibition of recombinant human JAK2 to IC50 for inhibition of recombinant human JAK1
Cytochrome P450 2C19 = Cytochrome P450 2C19 (Homo sapiens, UniProt P33261); assay: Inhibition of CYP2C19 in human liver microsomes incubated in presence NADPH by LC-MS/MS analysis
Sequence of Cytochrome P450 2C19 (P33261 whole entry): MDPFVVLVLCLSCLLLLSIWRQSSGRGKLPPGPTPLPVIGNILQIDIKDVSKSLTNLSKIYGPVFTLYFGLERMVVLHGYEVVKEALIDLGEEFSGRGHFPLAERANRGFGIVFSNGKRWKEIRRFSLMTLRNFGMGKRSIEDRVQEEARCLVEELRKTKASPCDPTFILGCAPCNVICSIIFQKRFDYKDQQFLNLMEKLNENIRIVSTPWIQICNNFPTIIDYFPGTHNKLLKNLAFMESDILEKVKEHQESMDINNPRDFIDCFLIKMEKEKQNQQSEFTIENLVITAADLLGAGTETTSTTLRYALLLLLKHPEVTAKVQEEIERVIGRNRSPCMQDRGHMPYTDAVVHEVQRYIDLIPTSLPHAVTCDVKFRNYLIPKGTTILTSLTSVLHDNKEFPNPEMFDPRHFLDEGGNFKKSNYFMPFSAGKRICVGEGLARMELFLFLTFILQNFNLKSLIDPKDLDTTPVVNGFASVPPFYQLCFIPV

[15] = Apparent permeability across basolateral to apical side in human Caco-2 cells at 10 uM measured after 120 mins by LC-MS/MS analysis
Cytochrome P450 2B6 = biological target: T1, Cytochrome P450 2B6 (Homo sapiens, UniProt P20813); assay: Inhibition of CYP2B6 in human liver microsomes incubated in presence NADPH by LC-MS/MS analysis
T1 sequence (P20813 whole entry): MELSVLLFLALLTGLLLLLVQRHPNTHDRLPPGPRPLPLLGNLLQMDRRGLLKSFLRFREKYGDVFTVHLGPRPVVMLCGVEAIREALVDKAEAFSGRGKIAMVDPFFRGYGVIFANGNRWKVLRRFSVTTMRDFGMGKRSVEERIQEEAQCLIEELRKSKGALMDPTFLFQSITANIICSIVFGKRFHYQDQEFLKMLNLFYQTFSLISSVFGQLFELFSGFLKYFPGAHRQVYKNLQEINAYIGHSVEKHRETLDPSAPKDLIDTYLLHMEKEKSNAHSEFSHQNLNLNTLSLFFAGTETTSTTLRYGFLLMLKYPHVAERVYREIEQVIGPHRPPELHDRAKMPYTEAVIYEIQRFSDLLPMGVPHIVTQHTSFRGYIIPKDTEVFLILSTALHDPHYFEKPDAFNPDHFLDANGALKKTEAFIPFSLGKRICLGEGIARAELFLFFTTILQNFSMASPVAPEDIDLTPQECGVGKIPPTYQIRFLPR

[16] = Efflux ratio of apparent permeability from basolateral to apical side over apical to basolateral side in human Caco-2 cells at 10 uM incubated for 120 mins by LC-MS/MS analysis
Cytochrome P450 1A2 = biological target: T2, Cytochrome P450 1A2 (Homo sapiens, UniProt P05177); assay: Inhibition of CYP1A2 in human liver microsomes incubated in presence NADPH by LC-MS/MS analysis
T2 sequence (P05177 whole entry): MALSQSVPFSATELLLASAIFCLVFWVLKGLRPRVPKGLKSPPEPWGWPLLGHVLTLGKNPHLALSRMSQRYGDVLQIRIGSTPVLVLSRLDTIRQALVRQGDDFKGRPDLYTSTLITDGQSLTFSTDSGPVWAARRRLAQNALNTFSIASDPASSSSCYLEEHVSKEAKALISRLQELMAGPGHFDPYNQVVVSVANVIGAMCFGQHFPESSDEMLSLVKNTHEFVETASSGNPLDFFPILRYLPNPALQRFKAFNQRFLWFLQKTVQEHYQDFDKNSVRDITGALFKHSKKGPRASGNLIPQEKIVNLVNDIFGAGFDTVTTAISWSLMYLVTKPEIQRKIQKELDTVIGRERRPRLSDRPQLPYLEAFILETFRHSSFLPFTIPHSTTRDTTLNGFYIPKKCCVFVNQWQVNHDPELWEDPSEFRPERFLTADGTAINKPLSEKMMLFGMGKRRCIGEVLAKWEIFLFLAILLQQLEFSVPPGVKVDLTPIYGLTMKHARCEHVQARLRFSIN

IC50 (Cytochrome P450 3A4) [µM] | Ratio IC50 (Homo sapiens [11]) | Papp A→B at 2 h, 10 µM [12] [×10⁻⁶ cm/s] | IC50 (Cytochrome P450 2C9) [µM] | IC50 [13] [µM] | Ratio IC50 (Homo sapiens [14]) | IC50 (Cytochrome P450 2C19) [µM] | Papp B→A at 2 h, 10 µM [15] [×10⁻⁶ cm/s] | IC50 (Cytochrome P450 2B6) [µM] | efflux ratio at 2 h, 10 µM [16] | SMILES | microsomal CLint at 1 µM [1] [µL/min/mg] | fraction unbound at 4 h, 2 µM [2] | microsomal CLint at 1 µM [3] [µL/min/mg] | Vdss [4] [L/kg] | CLH [5] [µL/min/mg] | half-life [6] [h] | clearance [7] [mL/min/kg] | fraction unbound at 4 h, 2 µM [8] | CLH [9] [µL/min/mg] | CLH [10] [µL/min/mg] | further results
– | – | – | – | – | – | – | – | – | – | O=C(Nc1nc2cccc(C3CCC4(CC3)CN(C(=O)[C@@H]3CC3(F)F)C4)n2n1)C1CC1 | < 9.6 | 0.259 | < 9.6 | 1.61 | 9.1 | 2.01 | 22.1 | 0.26 | < 6.4 | < 6.4 | –
> 100 | 2.2 | 1.6 | 49 | 0.067 | 10.5 | 64.3 | 31.2 | > 100 | 19.5 | O=C(Nc1nc2cccc(C3CCC4(CC3)CCN(C(=O)[C@@H]3CC3(F)F)C4)n2n1)C1CC1 (stereo not given in full) | 46.5 | 0.112 | 15.7 | – | 134.3 | – | – | 0.205 | < 6.4 | 25.6 | IC50 (Cytochrome P450 1A2): > 100 µM
> 100 | 8.7 | 4.29 | 46.8 | 0.026 | 13.3 | 4.93 | 29.1 | > 100 | 6.77 | O=C(Nc1nc2cccc(C3CCC4(CC3)CCN(C(=O)[C@@H]3CC3(F)F)CC4)n2n1)C1CC1 | 20.8 | 0.057 | < 9.6 | 0.942 | 40.6 | 4.74 | 14.9 | 0.067 | < 6.4 | < 6.4 | IC50 (Cytochrome P450 1A2): > 100 µM

SMILES | IC50 (Cytochrome P450 3A4) [µM] | Ratio IC50 (Homo sapiens [11]) | Papp A→B at 2 h, 10 µM [12] [×10⁻⁶ cm/s] | IC50 (Cytochrome P450 2C9) [µM] | IC50 [13] [µM] | Ratio IC50 (Homo sapiens [14]) | IC50 (Cytochrome P450 2C19) [µM] | Papp B→A at 2 h, 10 µM [15] [×10⁻⁶ cm/s] | IC50 (Cytochrome P450 2B6) [µM] | efflux ratio at 2 h, 10 µM [16] | microsomal CLint at 1 µM [1] [µL/min/mg] | fraction unbound at 4 h, 2 µM [2] | microsomal CLint at 1 µM [3] [µL/min/mg] | Vdss [4] [L/kg] | CLH [5] [µL/min/mg] | half-life [6] [h] | clearance [7] [mL/min/kg] | fraction unbound at 4 h, 2 µM [8] | CLH [9] [µL/min/mg] | CLH [10] [µL/min/mg] | further results
O=C(Nc1nc2cccc([C@H]3CC[C@@H](NC(=O)[C@@H]4CC4(F)F)CC3)n2n1)C1CC1 | > 100 | 12 | 2.78 | > 100 | 0.024 | 11 | 75 | 29.2 | > 100 | 10.5 | 24.2 | 0.148 | 16.9 | 0.501 | 34.2 | 1.5 | 9.58 | 0.156 | < 6.4 | < 10.8 | IC50 (Cytochrome P450 1A2): 8.21 µM
